Source: US12102675B2, “MRNA therapeutic compositions” (Nutcracker Therapeutics, Inc., priority 2022, dated 2024)
“Also recorded” adds a separate entry of the source.

What was measured:
[1] = Rat toxicology study, control mRNA in DV-140-F2, intramuscular; assay type: in vivo, Sprague-Dawley rats; conditions: 4 doses in 2 weeks
Description: Briefly, Sprague-Dawley rats (n=8) were treated with a control mRNA formulated in DV-140-F2 at 0.03 or 0.3 mg/kg or PBS vehicle. Injections were done 4 times over the course of 13 days and were administered intramuscularly into the hind limb. Whole blood was taken for hematology, and serum taken for clinical chemistry and cytokine analysis at 6 hours post the first dose and final dose, and 2 weeks post the final dose. Additionally, 2 of the animals were sacrificed at 6 hours post the final dose and 2 weeks post final dose and a gross necropsy was performed. Tissue samples were retained and histopathology run on select organs.

[2] = system: recurrent or metastatic cervical cancer, tumors express PD-L1 (CPS≥1); conditions: single agent, disease progression on or after chemotherapy; cited from earlier work
[3] = system: persistent, recurrent, or metastatic cervical cancer, tumors express PD-L1 (CPS≥1); conditions: in combination with chemotherapy, with or without bevacizumab; cited from earlier work
HVEM = biological target: T1, HVEM (Homo sapiens, UniProt Q92956); assay: HVEM activation by LIGHT, HVEM reporter cell line; assay type: cell-based; conditions: FIGS. 1A, 1B, 12
T1 construct: host or cells: HVEM reporter cell line (not further described)
T1 sequence (Q92956 39-283): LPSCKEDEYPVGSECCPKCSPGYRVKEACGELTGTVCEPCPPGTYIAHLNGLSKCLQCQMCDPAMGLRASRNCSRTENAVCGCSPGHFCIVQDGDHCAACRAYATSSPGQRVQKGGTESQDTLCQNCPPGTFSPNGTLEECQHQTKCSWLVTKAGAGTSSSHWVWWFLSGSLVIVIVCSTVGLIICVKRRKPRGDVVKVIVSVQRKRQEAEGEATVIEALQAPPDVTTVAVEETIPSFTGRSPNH
From the text: FIG. 12 illustrates pre-blocking of soluble LIGHT in HVEM co-HEK transfected cells.
FIGS. 13A-13C are a comparison of HVEM activation with supernatant (blue) or cells (orange) for soluble LIGHT or membrane-stabilized LIGHT.

CD3+ T cells = assay: T cell proliferation in co-culture with HEK cells transfected with LIGHT variants; assay type: cell-based, human; conditions: vs soluble (Wt) LIGHT, FIGS. 9A, 9B
Description: LIGHT variants were formulated in MessengerMax mRNA Transfection Reagent. Human embryonic kidney (HEK) cells were transfected with the LIGHT variant constructs for cell surface expression of LIGHT. CellTrace Violet (Thermo Fischer Scientific) was used to label CD3+ T cells from the resulting peripheral blood mononuclear cells (PBMC). 100 ng/mL of soluble CD3 Antibody was added to the resulting labeled CD3+ T cells. The T cell proliferation and interferon-gamma (IFN-7) secretion was evaluated about 5 days of co-culture.

transfected cells = assay: Surface expression of soluble or membrane-stabilized LIGHT by flow cytometry using HVEM binding; assay type: cell-based; conditions: compared to WT LIGHT mRNA
From the text: FIGS. 14A and 14B depict the assessment of surface expression of soluble LIGHT or membrane-stabilized LIGHT by flow cytometry using HVEM binding.

primary human T cell = assay: Human T cell proliferation in response to ENG or WT hLIGHT mRNA with hIL-12 mRNA; assay type: cell-based; conditions: HEK293 transfected with hIL-12 mRNA plus LIGHT mRNA, 1:5 with T cells, anti-CD3 30 or 100 ng/mL, 4 days; relative to IL-12 and WT hLIGHT
Description: This study was designed to compare the ability of ENG and WT hLIGHT mRNAs in combination with hIL-12 mRNA to stimulate primary human T cell proliferation. Human T cells were isolated from PBMCs from 1 healthy donor and stained with CellTrace Violet. HEK293 cells were transfected with hIL-12 mRNA (RNA-683) and WT hLIGHT (RNA-786) or ENG hLIGHT (RNA-1359) mRNA formulated in Lipofectamine MessengerMAX (0.5 ng each mRNA per 1000 cells). Control cells were transfected with noncoding mRNA control in the same way. Transfected HEK293 cells were cocultured with the T cells in a 1:5 ratio in the presence of 30 ng/mL or 100 ng/mL anti-CD3 antibody to mimic antigen specific TCR engagement for 4 days at 37° C., 5% CO2. CD8+ T cell proliferation was assessed by flow cytometry and the proliferation index was calculated. […] The results are shown in FIG. 10A, where ENG=engineered; HEK=human embryonic kidney; IL-12=interleukin-12; PBMC=peripheral blood mononuclear cell; WT=wildtype. The data in FIG. 10A represent mean±standard deviation (n=4). Statistical analysis was performed by unpaired student's t-test (P<0.05).

[4] = High dose in rat, 100 μg RNA IM
[5] = Therapeutic dose scaled for rat, 30 μg RNA IM

With `CCCCCCCCCCN(CC(N)=O)C(=O)CN(CCCCCCCCCC)C(=O)CN(CCCCCCCCCC)C(=O)CN(CCCCCCCCCC)C(=O)CNCCO` [Compound 140, N-(2-amino-2-oxoethyl)-N-decyl-2-(N-decyl-2-(N-decyl-2-(N-decyl-2-((2-hydroxyethyl)amino)acetamido)acetamido)acetamido)acetamide] the Gross organ pathology [1, 4] was “None observed”, the “Injection site reactions or other clinical observations” value [1, 4] was “None observed” and the Gross organ pathology [1, 5] was “None observed”. The “Injection site reactions or other clinical observations” value [1, 5] was “None observed”.

In the case of pembrolizumab [KEYTRUDA], the objective response [2] is given as “around 14%” and the overall survival [3] is given as “improvements in overall survival”.

B1: soluble LIGHT: Wild-type soluble human LIGHT (SEQ ID NO: 1) (protein)
chain: MEESVVRPSVFVVDGQTDIPFTRLGRSHRRQSCSVARVGLGLLLLLMGAGLAVQGWFLLQLHWRLGEMVTRLPDGPAGSWEQLIQERRSHEVNPAAHLTGANSSLTGSGGPLLWETQLGLAFLRGLSYHDGALVVTKAGYYYIYSKVQLGGVGCPLGLASTITHGLYKRTPRYPEELELLVSQQSPCGRATSSSRVWWDSSFLGGVVHLEAGEEVVVRVLDERLVRLRDGTRSYFGAFMV
modifications: Human Wild Type LIGHT (786) aa
With B1 the “effect of soluble LIGHT on HVEM binding and signaling by membrane-stabilized LIGHT” value (HVEM) was “decreases the ability of membrane-stabilized LIGHT to activate HVEM; also recorded: competes for HVEM binding and reduces signaling by membrane-stabilized LIGHT”.

B2: ENG hLIGHT: mRNA SEQ ID NO: 18 encoding human LIGHT with amino acids #66-92 replaced by 10 amino acid linker (SEQ ID NO: 17) (nucleic acid)
chain: AGGCAUAGAAGUCGAGACACAGCCACUAAGUAAGCCACCAUGGAGGAGAGCGUGGUGCGGCCUAGCGUGUUCGUGGUCGACGGCCAGACCGACAUCCCCUUCACCAGACUGGGAAGAAGCCACAGAAGGCAGUCUUGCUCCGUGGCCAGAGUGGGCCUGGGCCUGCUCCUGCUGCUGAUGGGCGCUGGCCUGGCCGUGCAAGGCUGGUUCCUGCUGCAGCUGCACUGGCGGCUGGGCAGCAGCGCCUCUACCGAUAAGACCCACACCGUGAACCCUGCCGCCCACCUGACCGGCGCCAACAGCUCUCUGACCGGAUCUGGCGGACCUCUGCUGUGGGAGACACAGCUGGGCCUUGCUUUUCUGCGGGGCCUGAGCUACCACGACGGCGCUCUGGUGGUUACAAAGGCCGGCUACUACUACAUCUACAGCAAGGUGCAGCUGGGAGGCGUGGGUUGUCCACUGGGACUGGCCAGCACAAUCACACACGGCCUUUAUAAGCGGACCCCUAGAUACCCCGAGGAACUGGAACUGCUGGUCUCCCAGCAGAGCCCUUGCGGCAGAGCCACAAGCAGCAGCAGAGUGUGGUGGGACAGCUCAUUCCUGGGCGGCGUGGUGCAUCUGGAAGCCGGCGAGAAAGUGGUGGUCAGAGUGCUGGACGAGAGACUGGUGCGGCUGAGAGAUGGGACCCGCUCCUACUUCGGCGCCUUUAUGGUGUGAUAAGCGCCGCCUCCGGGACAGUGCACCCAGGCUGCGGCCCCUCCCCCGUCCUGGAGGUUCCCCAGCCCCACUUACCGCUUAAUGCGCCAAUAAACCAAUGAACGAAGCAAAAAAAAAAAAAAAAAAAAAAAAAAAAAAAAAAAAAAAAAAAAAAAAAAAAAAAAAAAAAAAAAAAAAAAAAAAAAAAAAAAAAAAAAAAAAAAAAAAAAAAAAAAAAAAAAAAAAAAAAAAAAAAAAAAAAAAAAAAAAAAAAAAAAAAAAAAAAAAAAAAAAAAAA
modifications: LIGHT ICD TM 1-66 RLG … LIGHT 92-240 1359, aka 1495 nt
For B2, the T-cell proliferation (CD3+ T cells; listed as 1359) was “increase of T-cell proliferation”, the T-cell proliferation (CD3+ T cells; listed as ENG LIGHT mRNA) was “increased T cell proliferation” and the “surface expression and bioactivity on transfected cells” value (transfected cells) was “higher surface expression and bioactivity”. For the same molecule, the “CD8+ T cell proliferation and survival” value (primary human T cell) was “increased CD8+ T cell proliferation and survival”.
